Calls of active or inactive are those of the source.
What was measured:
Nonstructural protein 1 = Nonstructural protein 1 (Influenza A virus, UniProt Q194T2); assay type: functional, Influenza A virus (A/California/07/2009(H1N1))
HEK293 [1] = test: cells; assay type: functional, cell-based; conditions: Homo sapiens
[2] = cytotoxicity toward DRD oncogenic fibroblasts, dose response, cell-based, non-viral oncogenic, luminescence (AID 1934); assay type: functional; conditions: Homo sapiens
HEK293 [3] = test: cells; assay type: functional, cell-based; conditions: Homo sapiens; remark: listed apart in the source
[4] = target: Nucleotide-binding oligomerization domain-containing protein 2 (Homo sapiens, UniProt Q9HC29); test: NOD2 signaling inhibitors, cell-based, luminescence, uHTS, HEK293 (AID 1566); assay type: functional
HEK293 [5] = test: NOD2 signaling inhibitors in MDP-stimulated cells, cell-based, uHTS, luminescence (AID 2001); assay type: functional; conditions: Homo sapiens
BJ [6] = test: cytotoxicity toward BJ-TERT-LT-ST fibroblasts, dose response, cell-based, RAS-independent, luminescence (AID 1935); assay type: functional; conditions: Homo sapiens;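 further: BJ fibroblasts immortalized with TERT plus LT and ST oncogenes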
HEK293 [7] = test: NOD1 signaling inhibitors, primary screen, cell-based, luminescence, uHTS (AID 1578); assay type: functional; conditions: Homo sapiens
BJ [8] = test: cytotoxicity toward BJ-TERT fibroblasts, dose response, cell-based, RAS-independent, luminescence (AID 1933); assay type: functional; conditions: Homo sapiens
BJ [9] = test: cells; assay type: functional, cell-based; conditions: Homo sapiens
HEK293 [10] = test: cells; assay type: functional, cell-based; conditions: Homo sapiens; remark: listed apart in the source
[11] = target: G-protein coupled receptor 55 (Homo sapiens, UniProt Q9Y2T6); test: GPR55 agonists via beta-arrestin recruitment, primary screen, imaging, U2OS cells, beta-arrestin-GFP redistribution (AID 1961); assay type: functional
G-protein coupled receptor 55, sequence (Q9Y2T6 whole entry): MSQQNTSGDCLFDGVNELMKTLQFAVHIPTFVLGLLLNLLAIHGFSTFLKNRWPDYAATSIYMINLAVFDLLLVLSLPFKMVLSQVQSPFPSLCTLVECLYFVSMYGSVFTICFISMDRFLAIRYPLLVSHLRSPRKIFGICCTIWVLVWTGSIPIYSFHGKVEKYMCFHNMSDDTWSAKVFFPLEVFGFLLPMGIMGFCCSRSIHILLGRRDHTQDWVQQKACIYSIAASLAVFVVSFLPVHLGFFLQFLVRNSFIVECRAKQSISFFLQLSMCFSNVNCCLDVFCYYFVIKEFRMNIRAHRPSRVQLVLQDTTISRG

[12] = cytotoxicity in KRAS-transformed pancreatic duct cells, primary screen, cell-based, fluorescence, HTS (AID 431); assay type: functional; conditions: Homo sapiens;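 further: cell line used: HPDE-C7K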
[13] = cytotoxicity in HPDE-C7 cells, cell-based, fluorescence, HTS (AID 430); assay type: functional; conditions: Homo sapiens
Estrogen receptor = target: T1, Estrogen receptor (Homo sapiens, UniProt P03372);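 further: potency for inhibiting coactivator peptide recruitment to the receptor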
T1 sequence (P03372 whole entry): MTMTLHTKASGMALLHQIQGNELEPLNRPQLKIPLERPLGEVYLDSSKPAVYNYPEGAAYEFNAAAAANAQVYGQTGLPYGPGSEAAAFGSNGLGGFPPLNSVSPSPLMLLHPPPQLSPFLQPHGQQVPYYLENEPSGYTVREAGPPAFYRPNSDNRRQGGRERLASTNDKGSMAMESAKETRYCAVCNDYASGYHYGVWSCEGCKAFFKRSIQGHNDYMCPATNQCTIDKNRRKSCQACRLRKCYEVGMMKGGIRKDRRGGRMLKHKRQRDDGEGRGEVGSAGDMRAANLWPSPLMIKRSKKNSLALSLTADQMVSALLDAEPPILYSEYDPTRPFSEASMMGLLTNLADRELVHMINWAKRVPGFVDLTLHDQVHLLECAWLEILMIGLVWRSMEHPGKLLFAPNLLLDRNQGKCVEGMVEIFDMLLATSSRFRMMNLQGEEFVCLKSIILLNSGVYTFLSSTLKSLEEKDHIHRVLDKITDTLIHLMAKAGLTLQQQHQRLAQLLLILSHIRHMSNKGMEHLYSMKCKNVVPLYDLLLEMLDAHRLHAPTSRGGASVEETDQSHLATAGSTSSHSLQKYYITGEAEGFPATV

[14] = target: T2, Ubiquitin-conjugating enzyme E2 N (Homo sapiens, UniProt P61088); assay type: functional
T2 sequence (P61088 whole entry): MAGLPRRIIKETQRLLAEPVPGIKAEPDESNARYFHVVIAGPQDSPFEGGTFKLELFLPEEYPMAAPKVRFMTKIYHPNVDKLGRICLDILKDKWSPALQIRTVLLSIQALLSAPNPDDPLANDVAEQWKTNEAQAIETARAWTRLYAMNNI

[15] = inhibitors of SNCA 5'UTR-driven reporter translation, confirmation, H4 neuroglioma cells, luminescence (AID 1988); assay type: functional, cell-based
[16] = target: T2, Ubiquitin-conjugating enzyme E2 N; assay type: functional; remark: listed apart in the source
Streptococcus = test: Group A Streptococcus viability loss, dose response, counter-screen for streptokinase expression inhibitor project, luminescence, BacTiterGlo (AID 1915); assay type: functional, organism-based;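 further: potency for reduction of bacterial viability or growth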
[17] = NIH-3T3 fibroblast cytotoxicity, dose response, cytotoxicity control, cell-based, fluorescence, Alamar Blue, secondary assay (AID 2327); assay type: functional;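 further: NIH-3T3 mouse fibroblasts cultured with fluconazole at 8 µg/mL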
[18] = microbe, parasite or virus in culture; assay type: functional; conditions: Mycobacterium tuberculosis
Streptokinase A = target: T3, Streptokinase A (Streptococcus pyogenes serotype M1, UniProt P10520); test: S. pyogenes streptokinase expression inhibitors, potency, dose response, plasminogen activation absorbance, OD405 (AID 1914); assay type: functional, Streptococcus pyogenes M1 GAS;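 further: secreted streptokinase activity via plasminogen activation per viability signal from cell pellet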
T3 sequence (P10520 whole entry): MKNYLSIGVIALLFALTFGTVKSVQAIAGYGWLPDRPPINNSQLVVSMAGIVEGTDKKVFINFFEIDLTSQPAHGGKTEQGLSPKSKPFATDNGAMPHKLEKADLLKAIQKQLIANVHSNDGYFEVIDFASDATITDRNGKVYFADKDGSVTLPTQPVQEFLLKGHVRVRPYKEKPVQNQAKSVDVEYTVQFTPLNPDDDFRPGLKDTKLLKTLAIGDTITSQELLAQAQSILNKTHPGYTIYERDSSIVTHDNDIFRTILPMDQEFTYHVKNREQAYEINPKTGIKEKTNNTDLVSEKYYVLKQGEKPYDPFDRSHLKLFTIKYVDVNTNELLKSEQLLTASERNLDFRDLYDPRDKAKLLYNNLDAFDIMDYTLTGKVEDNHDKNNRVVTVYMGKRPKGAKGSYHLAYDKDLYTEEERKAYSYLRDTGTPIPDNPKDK

[19] = tested on: Streptococcus sp. 'group A'; test: growth inhibition of control SK(-) GAS strain, dose response, counter-screen for streptokinase expression inhibitor project, luminescence, kanamycin, BacTiterGlo, confirmation (AID 1900); assay type: functional, organism-based
[20] = C. albicans growth with fluconazole, confirmation, fluorescence, retest (AID 2467); assay type: functional, cell-based
[21] = inhibitors of firefly luciferase expression or activity, dose response, H4 neuroglioma cells, luminescence (AID 1990); assay type: functional, cell-based
[22] = Luminescence Cell-Based Dose Response HTS to Identify Inhibitors of 5'UTR Stem-Loop Driven Prion Protein mRNA Translation in H4 Neuroglioblastoma Cells. [Related pubchem assays: 1827 (Project Summary), 1813 (Primary HTS)]; assay type: functional
Bcl-2-related protein A1 = target: T4, Bcl-2-related protein A1 (Mus musculus, UniProt Q07440); assay type: functional;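 further: confirmatory dose–response counterscreen on Bfl-1, used to check hits from a UBC13 polyubiquitin inhibitor campaign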
T4 sequence (Q07440 whole entry): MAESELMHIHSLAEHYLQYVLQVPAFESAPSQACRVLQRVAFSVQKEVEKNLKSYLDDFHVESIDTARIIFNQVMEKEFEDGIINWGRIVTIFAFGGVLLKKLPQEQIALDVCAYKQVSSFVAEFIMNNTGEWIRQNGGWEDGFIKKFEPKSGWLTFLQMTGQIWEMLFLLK

[23] = target: Peroxisome proliferator-activated receptor gamma/Nuclear receptor coactivator 2 (Homo sapiens, UniProt P37231); test: (§1) TR-FRET dose response biochemical High Throughput Screening assay for agonists of the steroid receptor coactivator 2 (SRC-2) recruitment by the peroxisome proliferator-activated receptor gamma (PPAR gamma): non-selective agonists. [Related pubchem assays: 1297, 1032 ]; assay type: functional
Peroxisome proliferator-activated receptor gamma/Nuclear receptor coactivator 2, sequence (P37231 whole entry): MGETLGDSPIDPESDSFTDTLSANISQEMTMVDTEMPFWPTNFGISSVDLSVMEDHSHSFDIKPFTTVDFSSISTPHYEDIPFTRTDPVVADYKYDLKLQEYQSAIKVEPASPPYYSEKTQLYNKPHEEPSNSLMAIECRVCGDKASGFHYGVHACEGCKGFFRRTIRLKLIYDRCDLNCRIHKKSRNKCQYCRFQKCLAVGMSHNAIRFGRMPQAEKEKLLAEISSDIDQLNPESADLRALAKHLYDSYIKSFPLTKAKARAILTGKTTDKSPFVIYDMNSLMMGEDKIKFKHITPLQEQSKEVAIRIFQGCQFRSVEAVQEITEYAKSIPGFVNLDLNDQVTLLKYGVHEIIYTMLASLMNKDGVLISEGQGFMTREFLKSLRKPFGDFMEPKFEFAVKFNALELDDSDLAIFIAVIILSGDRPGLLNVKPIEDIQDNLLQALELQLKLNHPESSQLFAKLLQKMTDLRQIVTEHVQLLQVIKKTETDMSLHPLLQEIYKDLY
Peroxisome proliferator-activated receptor gamma/Nuclear receptor coactivator 2, sequence (Q15596 whole entry, further chain): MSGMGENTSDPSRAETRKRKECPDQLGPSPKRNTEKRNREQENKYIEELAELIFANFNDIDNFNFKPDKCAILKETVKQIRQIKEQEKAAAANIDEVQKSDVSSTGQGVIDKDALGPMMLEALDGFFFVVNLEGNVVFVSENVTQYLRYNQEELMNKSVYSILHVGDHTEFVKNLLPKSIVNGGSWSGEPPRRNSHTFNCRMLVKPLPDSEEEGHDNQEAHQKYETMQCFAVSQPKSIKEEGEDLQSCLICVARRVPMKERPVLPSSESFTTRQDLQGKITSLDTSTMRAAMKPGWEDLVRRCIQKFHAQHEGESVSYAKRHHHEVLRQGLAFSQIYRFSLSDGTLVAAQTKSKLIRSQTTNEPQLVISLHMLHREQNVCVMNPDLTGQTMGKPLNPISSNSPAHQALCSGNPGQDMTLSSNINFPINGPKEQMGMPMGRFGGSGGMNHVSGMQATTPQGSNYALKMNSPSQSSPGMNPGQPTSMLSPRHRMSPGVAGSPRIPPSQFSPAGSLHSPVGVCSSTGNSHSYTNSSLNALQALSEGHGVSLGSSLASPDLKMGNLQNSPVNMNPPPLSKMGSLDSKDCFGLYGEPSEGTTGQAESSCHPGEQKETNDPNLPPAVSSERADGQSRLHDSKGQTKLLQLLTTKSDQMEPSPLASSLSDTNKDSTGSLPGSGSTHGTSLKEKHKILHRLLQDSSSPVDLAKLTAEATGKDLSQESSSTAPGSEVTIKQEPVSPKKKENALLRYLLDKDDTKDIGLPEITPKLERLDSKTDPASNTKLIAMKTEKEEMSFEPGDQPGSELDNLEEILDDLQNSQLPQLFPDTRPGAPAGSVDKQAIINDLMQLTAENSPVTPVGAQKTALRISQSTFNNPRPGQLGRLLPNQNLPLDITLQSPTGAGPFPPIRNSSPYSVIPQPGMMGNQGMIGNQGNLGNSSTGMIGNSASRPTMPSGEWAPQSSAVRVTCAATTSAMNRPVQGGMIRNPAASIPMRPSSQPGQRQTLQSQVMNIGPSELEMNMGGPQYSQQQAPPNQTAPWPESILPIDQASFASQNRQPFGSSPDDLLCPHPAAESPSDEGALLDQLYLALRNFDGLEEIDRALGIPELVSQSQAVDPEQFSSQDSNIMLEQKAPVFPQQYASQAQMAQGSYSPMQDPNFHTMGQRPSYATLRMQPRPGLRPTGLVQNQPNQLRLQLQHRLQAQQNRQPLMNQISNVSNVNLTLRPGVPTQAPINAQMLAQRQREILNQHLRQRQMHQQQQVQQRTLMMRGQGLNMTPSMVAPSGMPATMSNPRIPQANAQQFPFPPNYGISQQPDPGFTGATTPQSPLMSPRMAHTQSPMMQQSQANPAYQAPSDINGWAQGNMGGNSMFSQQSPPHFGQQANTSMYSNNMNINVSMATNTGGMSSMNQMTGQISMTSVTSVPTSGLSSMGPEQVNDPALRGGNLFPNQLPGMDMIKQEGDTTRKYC

[24] = target: Peroxisome proliferator-activated receptor gamma/Nuclear receptor coactivator 1 (Homo sapiens, UniProt P37231); test: as §1, with “1 (SRC-1)” for “2 (SRC-2)”, “assays (depositor defined):AID1300, AID1808, AID504735, AID631]” for “assays: 1297, 1032 ]”; assay type: protein assay
[25] = target: Peroxisome proliferator-activated receptor gamma/Nuclear receptor coactivator 3 (Homo sapiens, UniProt P37231); test: as §1, with “3 (SRC-3)” for “2 (SRC-2)”, “1301 (Confirmation screen.), 1048 (Primary screen.)]” for “1297, 1032 ]”; assay type: functional
Peroxisome proliferator-activated receptor gamma/Nuclear receptor coactivator 3, sequence (P37231 whole entry): as the sequence (P37231 whole entry) above
Peroxisome proliferator-activated receptor gamma/Nuclear receptor coactivator 3, sequence (Q9Y6Q9 whole entry, further chain): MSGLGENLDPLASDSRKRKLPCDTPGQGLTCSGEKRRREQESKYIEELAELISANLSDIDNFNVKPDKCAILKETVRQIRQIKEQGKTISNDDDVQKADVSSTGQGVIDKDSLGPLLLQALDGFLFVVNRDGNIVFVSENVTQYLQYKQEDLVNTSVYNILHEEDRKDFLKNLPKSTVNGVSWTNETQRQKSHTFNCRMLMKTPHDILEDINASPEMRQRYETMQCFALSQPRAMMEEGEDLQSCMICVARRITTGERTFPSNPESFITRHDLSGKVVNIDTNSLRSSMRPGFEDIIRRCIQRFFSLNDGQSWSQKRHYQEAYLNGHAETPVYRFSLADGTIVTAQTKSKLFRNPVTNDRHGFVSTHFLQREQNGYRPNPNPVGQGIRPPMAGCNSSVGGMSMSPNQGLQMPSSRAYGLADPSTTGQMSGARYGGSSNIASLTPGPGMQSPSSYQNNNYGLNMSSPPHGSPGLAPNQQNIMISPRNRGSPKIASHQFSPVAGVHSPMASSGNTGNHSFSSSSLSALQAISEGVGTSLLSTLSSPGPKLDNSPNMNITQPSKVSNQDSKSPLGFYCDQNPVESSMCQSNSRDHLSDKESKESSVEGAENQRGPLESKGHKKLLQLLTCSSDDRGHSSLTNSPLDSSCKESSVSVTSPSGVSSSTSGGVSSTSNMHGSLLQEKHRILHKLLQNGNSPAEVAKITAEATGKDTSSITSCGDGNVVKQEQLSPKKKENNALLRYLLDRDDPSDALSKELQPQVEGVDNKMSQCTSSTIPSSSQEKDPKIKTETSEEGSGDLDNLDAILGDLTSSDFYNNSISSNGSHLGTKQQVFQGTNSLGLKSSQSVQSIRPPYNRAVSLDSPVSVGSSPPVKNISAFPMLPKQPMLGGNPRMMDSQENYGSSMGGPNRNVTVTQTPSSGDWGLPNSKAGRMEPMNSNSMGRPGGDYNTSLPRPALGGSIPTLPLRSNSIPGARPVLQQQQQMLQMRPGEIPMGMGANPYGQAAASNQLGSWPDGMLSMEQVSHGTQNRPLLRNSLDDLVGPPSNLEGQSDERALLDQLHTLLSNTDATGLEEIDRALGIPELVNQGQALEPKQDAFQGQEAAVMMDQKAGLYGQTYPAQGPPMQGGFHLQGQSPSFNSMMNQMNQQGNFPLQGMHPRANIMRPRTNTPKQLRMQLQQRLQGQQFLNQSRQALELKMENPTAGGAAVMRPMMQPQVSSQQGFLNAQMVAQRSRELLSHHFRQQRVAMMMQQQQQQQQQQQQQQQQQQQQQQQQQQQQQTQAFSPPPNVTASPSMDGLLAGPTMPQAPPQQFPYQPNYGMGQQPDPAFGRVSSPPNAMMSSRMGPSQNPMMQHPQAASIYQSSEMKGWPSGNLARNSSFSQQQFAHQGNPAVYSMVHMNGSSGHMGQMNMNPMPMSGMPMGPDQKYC

[26] = target: T5, Polyadenylate-binding protein 1 (Homo sapiens, UniProt P11940); test: PABP1 MLLE–PAM2 binding inhibitor potency, dose response, biochemical, fluorescence polarization, FITC-PAM2 peptide (AID 602259); assay type: functional; conditions: read-out: IC50_Mean
T5 sequence (P11940 whole entry): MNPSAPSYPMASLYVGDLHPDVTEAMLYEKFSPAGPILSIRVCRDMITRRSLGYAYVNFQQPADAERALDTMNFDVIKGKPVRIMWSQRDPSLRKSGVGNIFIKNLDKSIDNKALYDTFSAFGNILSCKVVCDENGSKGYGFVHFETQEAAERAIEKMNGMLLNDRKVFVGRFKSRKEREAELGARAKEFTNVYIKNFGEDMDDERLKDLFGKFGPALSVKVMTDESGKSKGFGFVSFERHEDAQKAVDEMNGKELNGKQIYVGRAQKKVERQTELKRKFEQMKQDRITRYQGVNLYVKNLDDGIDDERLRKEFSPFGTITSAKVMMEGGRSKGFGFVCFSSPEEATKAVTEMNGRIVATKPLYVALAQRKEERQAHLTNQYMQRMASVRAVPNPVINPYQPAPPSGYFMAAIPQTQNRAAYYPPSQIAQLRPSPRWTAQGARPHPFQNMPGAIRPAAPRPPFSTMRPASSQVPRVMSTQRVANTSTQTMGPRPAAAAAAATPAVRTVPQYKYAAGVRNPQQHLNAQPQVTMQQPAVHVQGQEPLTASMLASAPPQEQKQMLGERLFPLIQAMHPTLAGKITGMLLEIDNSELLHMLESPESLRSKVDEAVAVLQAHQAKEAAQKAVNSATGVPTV

[27] = target: T5, Polyadenylate-binding protein 1; test: PABP1 MLLE–PAM2 interaction inhibitors, dose response, miRNA deadenylation inhibitor project, biochemical, fluorescence polarization, Cy5-PAM2 peptide, secondary (AID 602260); assay type: functional; conditions: read-out: IC50_Mean

## C/C(=N\NC(=O)c1ccccc1F)c1ccccn1
Nonstructural protein 1
  IC50: 5.72 µM (active)
HEK293 [1]
  IC50: > 20 µM (inactive)
[2]
  EC50: 2.9 µM (active)
HEK293 [3]
  IC50: 9.17 µM (active)
[4]
  EC50: > 20 µM (inactive)
HEK293 [5]
  IC50: 3.76 µM (inactive)
BJ [6]
  EC50: 10.9 µM (active)
HEK293 [7]
  EC50: 18 µM (active)
BJ [8]
  EC50: 12 µM (inconclusive)
BJ [9]
  EC50: 4.68 µM (inconclusive)
HEK293 [10]
  IC50: > 20 µM (inactive)

## Cc1ccc(-c2nn3c(C)nnc3s2)cc1NC(=O)c1ccc(-c2cccc(Cl)c2)o1
[11]
  EC50: 17.7 µM (inactive)
[12]
  EC50: 17.7 µM (active)
[13]
  EC50: 15.4 µM (active)
Estrogen receptor
  IC50: > 50 µM (not active)

## CC[n+]1c(/C=C/N(C)c2ccccc2)n(-c2ccccc2)c2ccc(-c3nc4ccccc4s3)cc21
[14]
  IC50: 9.83 µM (active)
[15]
  EC50: 0.387 µM (active)
[16]
  IC50: 7.42 µM (active)
[11]
  EC50: > 32 µM (inactive)
[2]
  EC50: 3.03 µM (active)
Streptococcus
  EC50: 12 µM (active)
BJ [6]
  EC50: 2.7 µM (inconclusive)
[17]
  EC50: 90 µM (active)
[18]
  CC50: 3.06 µM (active)
Streptokinase A
  EC50: 13.3 µM (active)
[19]
  EC50: 3.27 µM (active)
[20]
  EC50: 0.337 µM (active)
[21]
  EC50: 0.35 µM (active)
[22]
  EC50: 5.72 µM (active)
BJ [8]
  EC50: 2.49 µM (inconclusive)
BJ [9]
  EC50: 2.93 µM (inconclusive)
Bcl-2-related protein A1
  IC50: 13.2 µM (active)

## CC(=C/c1ccccc1)/C=N/NC(=O)c1nnn(-c2nonc2N)c1CN1CCC(C)CC1
[11]
  EC50: 0.601 µM (active)

## CSc1ccccc1-c1nnc(S)o1
[23]
  EC50: 4.77 µM (active)
Streptococcus
  EC50: > 150 µM (not active)
[24]
  EC50: 22.3 µM (inactive)
Streptokinase A
  EC50: > 150 µM (not active)
[19]
  EC50: > 150 µM (not active)
[25]
  EC50: > 79.4 µM (not active)

## CCOC(=O)c1sc(=S)n(-c2ccccc2Cl)c1SC
[23]
  EC50: 12.5 µM (not active)
[26]
  IC50: > 66 µM (inactive)
[24]
  EC50: 10.7 µM (inactive)
[25]
  EC50: > 79.4 µM (not active)
[27]
  IC50: > 66 µM (inactive)
